Source: PMC8533176, “1,5-Benzodiazepin-2(3H)-ones: In Vitro Evaluation as Antiparkinsonian Agents” (Antioxidants, 2021)

Columns and labels:
[1] = Kinetic solubility by UV spectrometry; type: physicochemical; conditions: PBS 50 mM, aqueous buffer, kinetic from dmso stock
Experimental: A modified protocol was used from that described by Hoelke et al. for the determination of the kinetic solubility from DMSO compound solutions. A compound calibration curve (compound concentration vs UV absorption) was prepared for each compound with concentrations of 10, 20, 50, 100, and 200 µM. Each compound dilution was carried out by pipetting defined volumes of a 20 mM stock compound solution in DMSO into vials and adding PBS 50 mM to reach a final volume of 1 mL/well. The final amount of DMSO per well was 2%. For the lower compound concentrations, an additional volume of DMSO was added to each well to reach 2% DMSO. Then, 200 µL of each dilution was transferred to a new 96-well culture plate for the measurement of the UV-spectra. One well in each row was left without a compound as a blank, and its UV absorbance was used as an offset correction. The experiments were performed in duplicate.
In parallel, compound saturation solutions were reached and filtered from 20 mM compound stock in DMSO: 10 µL of a 20 mM stock solution was dispensed into 190 µL of PBS 10 mM. The solutions were mixed, shaken on a microplate shaker for two hours, and then 160 µL of each solution was filtered and transferred to a new well plate for UV absorption measurement.
Measurement of the UV-spectra was performed using a Varioskan microplate reader, and spectra were taken in the range of 270–600 nm. Spectral bandwidth was set to 5 nm, and the data pint interval was 10 nm. The experiments were carried out in triplicate.

SH-SY5Y cells [2] = assay: Cytotoxicity, MTT assay, SH-SY5Y; type: cell-based; conditions: Homo sapiens, MTT, cytotoxicity, read-out: SH-SY5Y IC50
Experimental: (§1) All compounds tested were dissolved and eventually further diluted in dimethylsulfoxide (DMSO). After overnight incubation, the cells were treated with different compound concentrations (5, 10, 20, 50, 100, 150, 200 µM) in a final volume of 200 µL with four replicates each. […] Cell proliferation or viability was measured using the 3-(4,5-dimethylthiazol-2-yl)-2,5-diphenyl tetrazolium bromide (MTT) assay. The MTT assay was optimized taking into account the number of cells plated per well, to work in the linear part of the cell density vs. MTT absorbance calibration curve, which allows achieving a maximum absorbance in the range of 0.8–1.0 in each well at the end of the experiment. In addition to that, the number of cells seeded for each experiment was optimized in agreement with the time scale of the experiment.
(§2) After cell treatment, 20 µL of MTT (5 mg/mL) was added to each well, and the plate was incubated at 37 °C in the dark for 2 h. Supernatants were removed, and the formazan crystals were solubilized in DMSO (200 µL/well), under 10 min shaking at room temperature. The reduction of MTT was quantified by absorbance at 570 nm in a Varioskan microplate reader (Thermo Fisher Scientific, Vantaa, Finland). Effects of the test compounds on cell viability were calculated using cells treated with a vehicle as a control. For IC50 and LD50 calculations, the data were subjected to linear regression analysis, and the regression lines were plotted for the best fit. The IC50 (inhibition of cell viability) concentrations were calculated using the respective dose–response curves.

HepG2 cells = assay: Cytotoxicity, MTT assay, HepG2; type: cell-based; conditions: Homo sapiens, HepG2; MTT, cytotoxicity; read-out: HepG2 IC50
Experimental: as §1, §2

SH-SY5Y cells [3] = assay: LDH release under H2O2; type: cell-based, human; conditions: H2O2 250 µM 24 h; compounds 24 h before; Figure 9
SH-SY5Y cells [4] = assay: Neuroprotection in the 6-OHD neurotoxicity-induced model, MTT; type: cell-based, human; conditions: 6-OHD 250 µM 48 h; compounds 24 h before
SH-SY5Y cells [5] = assay: Neuroprotection in the MPP+ neurotoxicity-induced model, MTT; type: cell-based, human; conditions: MPP+ 700 µM 48 h; compounds 24 h before
SH-SY5Y cells [6] = assay: Mitochondrial superoxide levels (MitoSOX); type: cell-based, human; conditions: H2O2 250 µM; compounds 24 h before
Experimental: Mitochondrial superoxide levels were measured with MitoSOX red (3,8-phenanthridinediamine, 5-(60-triphenylphosphoniumhexyl)-5,6-dihydro-6-phenyl) from Molecular Probes (Thermo Fisher Scientific, 29851Willow Creek Road, Eugene, OR, USA). After SH-SY5Y cell treatment in 96-well culture black clear bottom plates, the medium was removed and cells were washed with PBS and afterward, MitoSOX red (final concentration of 5 µM) in 200 µL of PBS was added and incubated for 20 min at 37 °C. After incubation, the cells were washed with warm PBS buffer, and fluorescence was measured at 510 nm excitation/640 nm emission wavelengths in a Varioskan microplate reader (Thermo Fisher Scientific, Vantaa, Finland).

[7] = test system: Caspase-3 activity in SH-SY5Y cells; assay: Caspase-3 activity; type: cell-based, human; conditions: H2O2 500 µM 4 h; compound 24 h before
Experimental: Caspase-3 activity was measured using the Abcam fluorimetric kit (ab39383) according to the manufacturer’s instructions. Cells are washed with ice-cold PBS and lysed with lysis buffer. After compound and stressor treatments, SH-SY5Y cells were scraped off from p6 plates and collected in a 1.5 mL Eppendorf vial. The cell suspension was then centrifuged at 9000× g for 10 min at 4 °C. The supernatant was collected and stored at −80 °C for 24 h. Caspase 3 activity was measured as the ability of the cell extract to cleave the […] fluorochrome. The sample’s protein concentration was determined by the Bradford method. The reaction assay was performed by the addition of 50 μL of the cell lysate into the wells of a black 96-well culture plate followed by the addition of 50 μL of 2× reaction buffer containing DTT (10 mM) and caspase-3 substrate DEVD-AFC (final concentration 50 μM). Reagents were mixed by shaking the plate for 2 min at 300 rpm and then incubated at 37 °C for 2 h. Caspase-3 activity was measured as fluorescence intensity in a Varioskan microplate reader at λex = 400 nm and λem = 505 nm wavelengths. Relative fluorescence units (RFU)/mg of protein were calculated, and the fold increase in Caspase-3 activity was compared with that of the control.

SH-SY5Y cells [8] = assay: Lipid peroxidation (MDA, TBARS); type: cell-based, human; conditions: 250 µM H2O2 24 h; 10 and 20 µM 24 h before
Experimental: For MDA studies, 2 × 10^5 SH-SY5Y cells were seeded in 6-well culture plates. After 24 h, cells were treated with the test compound and incubated for another 24 h. After compound treatment, cells were exposed to H2O2 for 24 h. Then, the cells were washed twice with cold 50 mM PBS buffer, detached, and lysed with lysis buffer, and TBA was added to each sample tube and vortexed. The reaction mixture was incubated at 96 °C for 60 min. After incubation, samples were cooled and centrifuged 10 min at 10^4 rpm. Samples were dispensed in 96-well culture black clear bottom plates, and fluorescence was measured with a Varioskan microplate reader at λex = 540 nm and λem = 590 nm wavelengths. Protein concentration was measured by the Bradford protein assay. The levels of MDA were expressed as nmol/mg protein. Experiments were performed four times in triplicate.

diffSH-SY5Y cells = assay: Neuroprotection in differentiated SH-SY5Y cells, MTT; type: cell-based, human; conditions: H2O2 500 µM 24 h; 0, 2, 5, 10, 20, and 40 µM 24 h before
[9] = Chemical reactivity with H2O2; type: physicochemical; conditions: H2O2 500 µM, 37 °C, 4 h; pH ≥ 7.4
Experimental: In our case, before running the protection experiments under oxidative stress conditions, we carried out experiments to assess the potential reactivity of compounds 9, 11, 13, and 18 at four different concentrations (5, 10, 20, and 40 µM) with H2O2 500 µM at 37 °C for 4 h in DMEM:F12 (without phenol red, FBS, and cells). Curcumin was used as a control compound.

[10] = previously reported; cited from earlier work
SH-SY5Y cells [11] = assay: Neuroprotection against H2O2-induced oxidative stress, MTT; conditions: H2O2 250 µM 24 h; compounds 5-50 µM 24 h before; Figure 8
[12] = ABTS radical scavenging assay; type: biochemical
Experimental: The mixture was stored in the dark at room temperature for 16 h. […] All the compounds tested were dissolved in EtOH. […] The degree of decolorization was calculated as the percentage reduction of absorbance. […] Trolox was used as a reference antioxidant.

[13] = Ferric reducing antioxidant power (FRAP) assay; type: biochemical; set-up: FRAP Assay Trolox Equivalents: unit not given here
Experimental: FRAP reagent was prepared by mixing 10 mL of 300 mM acetate buffer with 1 mL of 10 mM 2,4,6-tripyridyl-S-triazine (TPTZ) in HCl 40 mM and 1mL of FeCl3·6H2O 20 mM. […] Trolox was used as assay control.

SH-SY5Y cells [14] = assay: Intracellular ROS levels (DCFH2-DA); type: cell-based, human; conditions: 400 µM H2O2 4 h; compounds 24 h before
Experimental: Intracellular ROS levels were determined using dichlorofluorescein diacetate (DCFH2-DA) according to Wang et al.. DCFH2-DA is cleaved by intracellular esterases and is oxidized by ROS to form the fluorescent compound DCF, which represents the ROS level. Therefore, 3 × 10^3 SH-SY5Y cells were seeded in 96-well culture black clear bottom plates and after 24 h were treated with the test compound for an additional 24 h. Then, they were exposed to H2O2 for 4 h. After the incubation period, cells were washed twice with Hanks buffer and loaded with 20 µM DCFH2-DA (in FBS-free culture medium) for 40 min in dark at 37 °C in a CO2 incubator. At the end of the dye incubation period, they were washed twice with Hanks buffer to remove the extracellular DCFH2-DA. Fluorescence was measured with a Varioskan microplate reader at λex = 485 nm and λem = 535 nm wavelengths. Results are expressed as a percentage of the fluorescent increase compared with that of the control. All the experiments were performed at least three times in quadruplicate for each compound concentration.

SH-SY5Y cells [15] = assay: Mitochondrial membrane potential (JC-1); type: cell-based, human; conditions: 400 µM H2O2 4 h; compounds 24 h before at different concentrations
Experimental: The fluorescent dye 5,5′,6,6′-tetrachloro-1,1′,3,3′-tetraethylbenzimidazolylcarbocyanine iodide (JC-1) was used for measuring MMP [89]. A decrease in fluorescence intensity represents mitochondrial membrane depolarization. For fluorescence ratio detection under oxidative stress conditions, 96-well culture black clear bottom plates were seeded with 3 × 10^3 SH-SY5Y cells, and after 24-h incubation, they were treated with the test compound and left out for 24 h. Then, the cells were exposed to different H2O2 concentrations for 4 h. After the incubation period, the cells were washed twice with Hanks buffer and then stained with 5 µM JC-1 in culture media in the dark in a CO2 incubator at 37 °C for 20 min. At the end of the dye incubation period, cells were washed three times with Hanks buffer, and 200 µL of fresh buffer was added. Cells were analyzed with a Varioskan microplate reader. J-aggregate red fluorescence intensity was measured at λex = 535 nm and λem = 595 nm, while λem = 485 nm and λem = 535 nm was used for J-monomer green fluorescence. Results were expressed as the ratio of fluorescence intensity of J-aggregates to J-monomers. All the experiments were performed three times in quadruplicate for each compound concentration.

Compound	solubility [1] [µM]	IC50 (SH-SY5Y cells [2]) [µM]	IC50 (HepG2 cells) [µM]	LDH leakage (SH-SY5Y cells [3])	Neuroprotection, cell viability (MTT), 6-OHD model (SH-SY5Y cells [4])	Neuroprotection, cell viability (MTT), MPP+ model (SH-SY5Y cells [5])	Neuroprotection effect, cell viability (MTT) (SH-SY5Y cells [11])	also measured
COc1cc(/C=C/C(=O)CC(=O)/C=C/c2ccc(O)c(OC)c2)ccc1O [Curcumin, reference compound]	< 50	48.8 ± 5.1	110 ± 9.8	reduced LDH leakage to some degree	did not show any protection	did not yield any protection	only showed slight protection at concentrations 5 and 10 µM	Reduction in mitochondrial superoxide levels (SH-SY5Y cells [6]): only a clear reduction at 20 µM; Caspase-3 activity reduction [7]: did not show any reduction in caspase-3 activity; Effect on MDA levels (SH-SY5Y cells [8]): reduction of MDA levels although without statistical significance; Neuroprotection, diffSH-SY5Y cell viability (MTT) (diffSH-SY5Y cells): more irregular activity profile with some toxicity at 40 µM; concentration decrease in the presence of H2O2 [9]: 30%; water solubility [10]: < 0.6 µg/mL
COc1cc(C2=Nc3ccccc3NC(=O)C2)cc(OC)c1OC [Compound 20, 4-(3,4,5-Trimethoxyphenyl)-1H-1,5-benzodiazepin-2(3H)-one]	> 200	> 250	> 250	reduced LDH leakage to some degree	significant neuroprotection	dose-dependent neuroprotection	significantly improved	IC50 ([12]; 30-min incubation): 269 ± 27.2 µM; ABTS Assay TEAC50 ([12]; Equivalent antioxidant capacity at Trolox 50 mM): 0.34; ABTS Assay TEAC100 ([12]; Equivalent antioxidant capacity at Trolox 100 mM): 0.18; FRAP Assay Trolox Equivalents [13]: 0.90; FRAP Assay Antioxidant Capacity (%) at 100 uM ([13]; compound at 100 uM): 48.1%; FRAP Assay Antioxidant Capacity (%) at 200 uM ([13]; compound at 200 uM): 63.8%; Intracellular ROS level reduction (SH-SY5Y cells [14]): lower ROS decrease; MMP recovery (SH-SY5Y cells [15]): 10–25%
